Laboratory results taken from BindingDB's records for doi:10.1021/jm00163a043 (Michigan Cancer Foundation, 1990).

Molecular target: thymidine kinase (Oryctolagus cuniculus)
Experiment: Inhibitory affect against rabbit thymus thymidine kinase

| Compound | Ki [µM] |
| --- | --- |
| Cc1cn([C@H]2C=C[C@@H](CO)O2)c(=O)[nH]c1=S | 1690 |
| Cc1cn([C@H]2CC[C@@H](CO)O2)c(=O)[nH]c1=S | 1600 |
| Cc1cn([C@H]2C[C@H](N=[N+]=[N-])[C@@H](CO)O2)c(=O)[nH]c1=S | 54 |

Molecular target: thymidine kinase (Oryctolagus cuniculus)
Experiment: as above
Remark: another data set of the same source

| Compound | Ki [µM] |
| --- | --- |
| O=c1[nH]c(=S)ccn1[C@H]1C=C[C@@H](CO)O1 | 1690 |
| O=c1ccn([C@H]2C=C[C@@H](CO)O2)c(=O)[nH]1 | 445 |
| O=c1[nH]c(=S)ccn1[C@H]1CC[C@@H](CO)O1 | 1280 |
